Source: patent publication US8846694B2, “Pyrrolidone derivatives for use as MetAP-2 inhibitors” (Merck Patent GmbH, priority 2008, dated 2014)
Counter-ions that a name gives are not always drawn.

These compounds were tested against MetAP-2 (Homo sapiens, UniProt P50579) (assay: MetAP-2 activity measurement (coupled enzymatic reactions, substrate Met-Arg-Ser, photometric at 450 nm)). Details: read-out: IC50 enzyme (Inhibition of MetAP-2).
Format: biochemical
Protocol: MetAP-2 Activity Measurement
The MetAP-2 activity is determined by coupling enzymatic reactions. The tripeptide Met-Arg-Ser (MAS) is employed as substrate. The methionine liberated is firstly converted into Metox and H2O2 by L-aminooxidase (AAO). In the second step, the peroxidase (POD) with the aid of the H2O2 catalyses the oxidation of the leukodye dianisidine to dianisidineox, the increase of which is detected photometrically at 450 nm.
MetAP-2 activity can be recorded continuously as kinetics. The reaction scheme illustrates that one mol of dianisidineox is formed per mol of methionene. The MetAP-2 enzyme activity can therefore be calculated directly as Δ absorption per time unit. […] of the MetAP-2 activity (mol of Met/time unit) is possible with the aid of the dianisidineox extinction coefficient.
The change in extinction per time unit is depicted graphically and a slope calculation is carried out in the visually linear region of the reaction.

MetAP-2, sequence (P50579 whole entry, species assumed): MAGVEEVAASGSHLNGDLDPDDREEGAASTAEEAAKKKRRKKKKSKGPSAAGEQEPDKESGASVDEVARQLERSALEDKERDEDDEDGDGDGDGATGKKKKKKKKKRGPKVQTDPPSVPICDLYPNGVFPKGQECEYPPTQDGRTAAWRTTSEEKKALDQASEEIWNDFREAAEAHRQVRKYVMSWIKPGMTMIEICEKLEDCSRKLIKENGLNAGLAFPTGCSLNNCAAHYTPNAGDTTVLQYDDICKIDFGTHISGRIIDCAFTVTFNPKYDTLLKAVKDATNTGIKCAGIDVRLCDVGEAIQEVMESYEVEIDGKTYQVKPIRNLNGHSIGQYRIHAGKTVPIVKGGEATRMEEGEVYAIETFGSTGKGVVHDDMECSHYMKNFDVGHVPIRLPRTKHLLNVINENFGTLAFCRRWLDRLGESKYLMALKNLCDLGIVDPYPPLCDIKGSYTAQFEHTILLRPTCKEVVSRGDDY

| Compound | IC50 [µM] |
| --- | --- |
| 2-[1-(1H-imidazol-4-yl)meth-(Z)-ylidene]-5-[(R)-1-(9H-purin-6-yl)pyrrolidin-2-ylmethoxy]-3,4-dihydro-2H-naphthalen-1-one [A15] | 0.01 to 1 |
| Clc1ccccc1CCC1CCCN1c1ncnc2[nH]cnc12 (racemic) [A5, 6-{2-[2-(2-chlorophenyl)ethyl]pyrrolidin-1-yl}-9H-purine] | 1 to 10 |
| c1ccc2c(OC[C@H]3CCCN3c3ncnc4[nH]cnc34)ccc(CN3CCOCC3)c2c1 [A3, 6-[(R)-2-(4-morpholin-4-ylmethylnaphthalen-1-yloxymethyl)pyrrolidin-1-yl]-9H-purine] | 0.01 to 1 |
| FC1(F)C[C@H](COc2cccc3ccccc23)N(c2ncnc3[nH]cnc23)C1 [A8, 6-[(R)-4,4-difluoro-2-(naphthalen-1-yloxymethyl)pyrrolidin-1-yl]-9H-purine] | 1 to 10 |
| Clc1cccc(/C=C/[C@H]2CCCN2c2ncnc3[nH]cnc23)c1 [A11, 6-{(R)-2-[(E)-2-(3-chlorophenyl)vinyl]pyrrolidin-1-yl}-9H-purine] | 1 to 10 |
| C(=C\[C@H]1CCCN1c1ncnc2[nH]cnc12)/c1cccc2ccccc12 [A12, 6-[(R)-2((E)-2-naphthalen-1-ylvinyl)pyrrolidin-1-yl]-9H-purine] | 1 to 10 |
| O=C(NC1CC1)c1cc(OC[C@H]2CCCN2c2ncnc3[nH]cnc23)c2ccccc2n1 [A14, N-cyclopropyl-4-[(R)-1-(9H-purin-6-yl)pyrrolidin-2-ylmethoxy]quinoline-2-carboxamide hydrochloride] | 1 to 10 |
| Cc1nc2c(N3CCC[C@@H]3COc3ccccc3Cl)ncnc2[nH]1 [A16, 6-[(R)-2-(2-Chlorophenoxymethyl)pyrrolidin-1-yl]-8-methyl-9H-purine] | > 10 |
| CCc1nc2c(N3CCC[C@@H]3COc3ccccc3Cl)ncnc2[nH]1 [A17, 6-[(R)-2-(2-Chlorophenoxymethyl)pyrrolidin-1-yl]-8-ethyl-9H-purine HCl] | > 10 |
| Brc1nc2c(N3CCC[C@@H]3COc3cccc4ccccc34)ncnc2[nH]1 [A18, 8-Bromo-6-[(R)-2-(naphthalen-1-yloxymethyl)-pyrrolidin-1-yl]-9H-purine] | > 10 |
| CN(C[C@H]1CCCN1c1ncnc2[nH]cnc12)c1cccc(F)c1 [A21] | > 10 |
| Clc1ccccc1OC[C@H]1CCCN1c1ncnc2ncccc12 [A22] | > 10 |
| c1ccc2c(OC[C@H]3CCCN3c3ncnc4ncccc34)cccc2c1 [A23, 4-[(R)-2-(Naphthalen-1-yloxymethyl)pyrrolidin-1-yl]pyrido[2,3-d]pyrimidine] | > 10 |
| Nn1ccc2c(N3CCC[C@@H]3COc3ccccc3F)ncnc21 [A24, 4-[(R)-2-(2-Fluorophenoxymethyl)pyrrolidin-1-yl]pyrrolo[2,3-d]pyrimidin-7-ylamine] | > 10 |
| Nn1cnc2c(N3CCC[C@@H]3COc3cccc4ccccc34)ncnc21 [A25, 6-[(R)-2-(Naphthalen-1-yloxymethyl)pyrrolidin-1-yl]purin-9-ylamine] | 1 to 10 |
| F[C@@H]1C[C@H](COc2cccc3ccccc23)N(c2ncnc3[nH]cnc23)C1 [A26, 6-[(2R,4R)-4-Fluoro-2-(naphthalen-1-yl-oxymethyl)pyrrolidin-1-yl]-9H-purine] | > 10 |
| F[C@@H]1C[C@H](COc2ccccc2Cl)N(c2ncnc3[nH]cnc23)C1 [A27, 6-[(2R,4R)-2-(2-Chlorophenoxymethyl)-4-fluoro-pyrrolidin-1-yl]-9H-purine] | > 10 |

| Compound | IC50 [µM] |
| --- | --- |
| F[C@H]1C[C@H](COc2cccc3ccccc23)N(c2ncnc3[nH]cnc23)C1 [A28, 6-[(2R,4S)-4-Fluoro-2-(naphthalen-1-yl-oxymethyl)pyrrolidin-1-yl]-9H-purine] | 1 to 10 |
| O[C@@H]1C[C@H](COc2cccc3ccccc23)N(c2ncnc3[nH]cnc23)C1 [A30, (3R,5R)-5-(Naphthalen-1-yloxymethyl)-1-(9H-purin-6-yl)pyrrolidin-3-ol] | > 10 |
| O=c1ccc(-c2cc(F)cc(F)c2)nn1CC1CCCN1c1ncnc2[nH]cnc12 (stereo not drawn) [A32, 6-(3,5-Difluorophenyl)-2-[1-(9H-purin-6-yl)-pyrrolidin-2-ylmethyl]-2H-pyridazin-3-one] | > 10 |
| CC(=O)Nc1nc2ccc(CNC(=O)Nc3cc(C(F)(F)F)ccc3OCC3CCCN3c3ncnc4[nH]cnc34)cc2[nH]1 (stereo not drawn) [A33, N-[6-(3-{2-[1-(9H-Purin-6-yl)pyrrolidin-2-yl-methoxy]-5-trifluoromethylphenyl}ureido-methyl)-1H-benzimidazol-2-yl]acetamide] | > 10 |
| CNC(=O)c1cc(Oc2ccc(CNC(=O)Nc3cc(C(F)(F)F)ccc3OCC3CCCN3c3ncnc4[nH]cnc34)cc2)ccn1 (stereo not drawn) [A34, N-Methyl-4-[4-(3-{2-[1-(9H-purin-6-yl)pyrrolidin-2-ylmethoxy]-5-trifluoromethyl-phenyl}ureidomethyl)phenoxy]pyridine-2-carboxamide] | > 10 |
| c1ccc2c(c1)oc1cc(OC[C@H]3CCCN3c3ncnc4[nH]cnc34)ccc12 [A37] | 1 to 10 |
| c1ccc2c(c1)[nH]c1cccc(OC[C@H]3CCCN3c3ncnc4[nH]cnc34)c12 [A38, 4-[(R)-1-(9H-Purin-6-yl)pyrrolidin-2-ylmethoxy]-9H-carbazole] | 0.01 to 1 |
| CCCCn1c(C)c(C(=O)OCC)c2cc(OC[C@H]3CCCN3c3ncnc4[nH]cnc34)ccc21 [A39, Ethyl 1-butyl-2-methyl-5-[(R)-1-(9H-purin-6-yl)-pyrrolidin-2-ylmethoxy]-1H-indole-3-carboxylate] | 1 to 10 |
| c1cc(OC[C@H]2CCCN2c2ncnc3[nH]cnc23)c2cc[nH]c2c1 [A40, 6-[(R)-2-(1H-lndol-4-yloxymethyl)pyrrolidin-1-yl]-9H-purine] | 1 to 10 |
| CC(=O)c1cc2cccc(OC[C@H]3CCCN3c3ncnc4[nH]cnc34)c2o1 [A41, 1-{7-[(R)-1-(9H-Purin-6-yl)pyrrolidin-2-yl-methoxy]benzofuran-2-yl}ethanone] | 0.01 to 1 |
| c1cnc2c(OC[C@H]3CCCN3c3ncnc4[nH]cnc34)ccc(CN3CCCCC3)c2c1 [A42, 5-Piperidin-1-ylmethyl-8-[(R)-1-(9H-purin-6-yl)-pyrrolidin-2-ylmethoxy]quinoline formate] | 1 to 10 |
| c1cnc2c(OC[C@H]3CCCN3c3ncnc4[nH]cnc34)cccc2c1 [A43, 8-[(R)-1-(9H-Purin-6-yl)pyrrolidin-2-yl-methoxy]quinoline] | 1 to 10 |
| COc1cc2c(OC[C@H]3CCCN3c3ncnc4[nH]cnc34)ncnc2cc1OCc1ccccc1 [A45, 7-Benzyloxy-6-methoxy-4-[(R)-1-(9H-purin-6-yl)-pyrrolidin-2-ylmethoxy]quinazoline] | > 10 |
| NCCOCCOCCNCc1ccc(OC[C@H]2CCCN2c2ncnc3[nH]cnc23)c2ccccc12 [A47, 2-{2-[2-({4-[(R)-1-(9H-Purin-6-yl)pyrrolidin-2-yl-methoxy]naphthalen-1-ylmethyl}-amino)ethoxy]ethoxy}ethylamine] | 1 to 10 |
| CNC(=O)c1cc(OC[C@H]2CCCN2c2ncnc3[nH]cnc23)c2ccccc2n1 [A48, N-Methyl-4-[(R)-1-(9H-purin-6-yl)pyrrolidin-2-yl-methoxy]quinoline-2-carboxamide formate] | 0.01 to 1 |
| Cc1ccc2cccc(OC[C@H]3CCCN3c3ncnc4[nH]cnc34)c2n1 [A49, 2-Methyl-8-[(R)-1-(9H-purin-6-yl)pyrrolidin-2-yl-methoxy]quinoline] | 1 to 10 |
